# Test results published in patent EP2246331A1, “NR2B-selective NMDA-receptor antagonists” (Westfälische Wilhelms-Universität Münster, priority 2009, dated 2010).
# Read-outs that look alike come from different tables or passages of the source.
# Legend:
# [1] = target: T1, polyamine binding site of the NR2B subunit of the NMDA receptor (Homo sapiens, UniProt Q05586+Q13224); assay: Filtration-based receptor binding assay with [3H]-Ifenprodil as radioligand; conditions: 5 nM [3H]-Ifenprodil, membrane homogenates of mouse L(tk-) cells transfected with NR1-1a/NR2B, 180 min at 37 °C, read-out: affinity to the NR2B binding site of the NMDA receptor
# T1 construct: expressed in transfected cells; host or cells: mouse L(tk-) cells, dexamethasone-induced; gift from D. Steinhilber, University of Frankfurt
# T1 sequence (Q13224 27-1484, other chains not shown): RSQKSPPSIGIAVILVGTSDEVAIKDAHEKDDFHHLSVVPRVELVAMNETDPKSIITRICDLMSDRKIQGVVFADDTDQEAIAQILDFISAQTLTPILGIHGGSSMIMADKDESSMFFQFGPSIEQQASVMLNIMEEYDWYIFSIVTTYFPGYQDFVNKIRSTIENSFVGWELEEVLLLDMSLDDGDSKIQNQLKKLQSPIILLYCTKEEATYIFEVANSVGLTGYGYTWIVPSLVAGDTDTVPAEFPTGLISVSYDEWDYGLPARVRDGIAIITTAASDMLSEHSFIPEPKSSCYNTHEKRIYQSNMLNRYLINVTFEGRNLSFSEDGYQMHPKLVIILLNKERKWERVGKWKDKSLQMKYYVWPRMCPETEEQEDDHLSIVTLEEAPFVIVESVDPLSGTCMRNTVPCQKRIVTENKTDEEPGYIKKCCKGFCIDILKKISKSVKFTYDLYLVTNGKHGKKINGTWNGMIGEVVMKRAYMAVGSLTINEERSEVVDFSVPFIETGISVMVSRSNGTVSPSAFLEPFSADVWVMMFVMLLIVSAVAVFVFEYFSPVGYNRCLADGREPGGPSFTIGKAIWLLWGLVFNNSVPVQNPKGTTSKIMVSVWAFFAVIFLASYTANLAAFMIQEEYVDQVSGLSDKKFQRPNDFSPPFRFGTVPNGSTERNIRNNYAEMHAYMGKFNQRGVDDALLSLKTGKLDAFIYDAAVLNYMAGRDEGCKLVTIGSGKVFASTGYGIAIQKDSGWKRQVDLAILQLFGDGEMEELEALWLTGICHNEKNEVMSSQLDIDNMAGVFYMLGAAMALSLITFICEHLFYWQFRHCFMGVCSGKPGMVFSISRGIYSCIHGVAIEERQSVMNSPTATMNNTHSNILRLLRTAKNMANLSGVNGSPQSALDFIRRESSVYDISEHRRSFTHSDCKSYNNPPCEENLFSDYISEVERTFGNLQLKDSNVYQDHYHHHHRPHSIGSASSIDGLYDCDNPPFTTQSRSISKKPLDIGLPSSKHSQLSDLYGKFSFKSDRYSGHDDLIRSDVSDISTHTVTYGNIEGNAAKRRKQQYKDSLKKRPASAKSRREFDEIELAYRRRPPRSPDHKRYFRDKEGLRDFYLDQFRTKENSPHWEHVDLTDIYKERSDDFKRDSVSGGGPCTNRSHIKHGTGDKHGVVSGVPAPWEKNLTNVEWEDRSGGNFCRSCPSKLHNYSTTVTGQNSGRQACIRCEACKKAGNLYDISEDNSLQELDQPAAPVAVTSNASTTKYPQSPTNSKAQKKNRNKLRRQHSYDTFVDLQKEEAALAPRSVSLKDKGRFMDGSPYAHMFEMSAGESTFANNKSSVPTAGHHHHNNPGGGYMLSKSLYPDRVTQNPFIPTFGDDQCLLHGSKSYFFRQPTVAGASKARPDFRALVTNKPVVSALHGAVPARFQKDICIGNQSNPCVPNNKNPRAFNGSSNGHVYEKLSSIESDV
# Procedure: Mouse L(tk-) cells stably transfected with the dexamethasone-inducible eukaryotic expression vectors pMSG NR1-1a, pMSG NR2B in a 1:5 ratio were a generous gift from D. Steinhilber (Department of Pharmacy, University of Frankfurt, Germany). The transformed L(tk-) cells were grown in Modified Earl's Medium (MEM) containing 10% of standardized FCS (Biochrom AG, Berlin, Germany). The expression of the NMDA receptor at the cell surface was induced after the cell density of the adherent growing cells had reached approximately 90% of confluency. For the induction, the original growth medium was replaced by growth medium containing 4 µM dexamethasone and 4 µM ketamine (final concentration). After 24 h the cells were harvested by trypsination and pelleted (10 min, 5,000 x g, Hettich Rotina 35R centrifuge, Tuttlingen, Germany).
# For the binding assay, the cell pellet was resuspended in PBS buffer and the number of cells was determined using an improved Neubauer's counting chamber (VWR, Darmstadt, Germany). Subsequently, the cells were lysed by sonication (4 °C, 6 x 10 s cycles with breaks of 10 sec). The resulting cell fragments were centrifuged with a high performance cool centrifuge (20,000 x g, 4 °C, Sorvall RC-5 plus, Thermo Scientific). The supernatant was discarded and the pellet resuspended in a defined volume of phosphate buffer saline (PBS) yielding cell fragments of approximately 500,000 cells/mL. The suspension of membrane homogenates was sonicated again (4 °C, 2 x 10 s cycles with a break of 10 min) and stored at -80 °C.
# The cell membrane suspension was added last. All experiments were carried out in triplicates. The incubation was terminated by rapid filtration through filtermats using a cell harvester (MicroBeta FilterMate-96 Harvester, Perkin Elmer). Prior to harvesting, the filtermats were presoaked in 0.5% aqueous polyethylenimine for 2 h at room temperature. After washing each well five times with 300 µL of water, the filtermats were dried at 95 °C. Subsequently, the solid scintillator was placed on the filtermat and melted at 95 °C. After 5 min, the solid scintillator was allowed to solidify at room temperature. The bound radioactivity trapped on the filters was counted in the scintillation analyzer (Microbeta Counter, Perkin Elmer). The overall counting efficiency was 20%.
# The protein concentration was determined by the method of Bradford, modified by Stoscheck. The Bradford solution was prepared by dissolving 5 mg of Coomassie Brilliant Blue G 250 in 2.5 mL EtOH (95%, v/v). 10 mL deionized H2O and 5 mL phosphoric acid (85%, m/v) were added to this solution, the mixture was stirred and filled up to a total volume of 50.0 mL with deionized water. The calibration was carried out using bovine serum protein as a standard in concentrations between 0.1 and 10 mg /L. In a 96-well standard multiplate, 10 µL of the calibration solution or 10 µL of the membrane receptor preparation were mixed with 190 µL of the Bradford solution, respectively.
# Kd and Bmax were calculated as described in the "Data analysis" section.
# Data analysis was performed with Graph Pad Prism® Software, Version 3.0 (Graph Pad Software Inc., San Diego, CA, USA).
# Saturation analyses were made by nonlinear regression using the "one-site-saturation" calculation method. The IC50 values of the test compounds used in the competitive binding experiments were determined by nonlinear regression using the "one-site-competition" calculation method. […] The Ki values are given as mean values from three independent experiments ± Standard Error of the Mean (S.E.M).
# σ1 receptor = target: T2, σ1 receptor (Cavia porcellus, UniProt Q60492); assay: Receptor binding assay with [3H]-(+)-pentazocine on guinea pig brain membranes; conditions: for inhibition of the σ1 receptor only at concentrations above: given as above 1 µM or 10 µM
# T2 construct: tissue Harlan Winkelmann; host or cells: guinea pig brain membranes
# T2 sequence (Q60492 whole entry): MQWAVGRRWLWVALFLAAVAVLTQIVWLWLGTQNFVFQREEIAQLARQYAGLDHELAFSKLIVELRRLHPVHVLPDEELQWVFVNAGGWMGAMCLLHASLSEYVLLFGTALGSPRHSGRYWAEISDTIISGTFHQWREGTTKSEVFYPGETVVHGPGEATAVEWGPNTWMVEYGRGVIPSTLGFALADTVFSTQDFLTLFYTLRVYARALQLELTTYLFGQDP
# Procedure: (§1) The pig brains were a donation of the local slaughterhouse (Coesfeld, Germany). Homogenizer: Elvehjem Potter (B. Braun Biotech International, Melsungen, Germany). Centrifuge: High-speed cooling centrifuge model Sorvall RC-5C plus (Thermo Fisher Scientific, Langenselbold, Germany). Filter: Printed Filtermat Typ A and B (Perkin Elmer LAS, Rodgau-Jügesheim, Germany), presoaked in 0.5% aqueous polyethylenimine for 2 h at room temperature before use. […] Before filling to the final volume of 1000 mL, the pH of the solution was adjusted to pH=7.5 by dropwise addition of 1M HCl. The filtration was carried out with a MicroBeta FilterMate-96 Harvester (Perkin Elmer). The scintillation analysis was performed using Meltilex (Typ A or B) solid scintillator (Perkin Elmer). The solid scintillator was melted on the filtermat at a temperature of 95 °C for 5 minutes. After solidifying of the scintillator at room temperature, the scintillation was measured using a MicroBeta Trilux scintillation analyzer (Perkin Elmer). The overall counting efficiency was 20 %. All experiments were carried out in triplicates using standard 96-well-multiplates (Diagonal, Muenster, Germany). […] The Ki-values are given as mean value ± SEM from three independent experiments.
# Determination of the affinity to the σ1 receptor
# Five guinea pig brains (Harlan Winkelmann, Borchen, Germany) were homogenized with the potter (500-800 rpm, 10 up-and-down strokes) in 6 volumes of cold 0.32 M sucrose. The suspension was centrifuged at 1200 x g for 10 min at 4 °C. […] This procedure was repeated twice. The final pellet was resuspended in 5 to 6 volumes of buffer, the protein concentration was determined according to the method of Bradford using bovine serum albumin as standard, and subsequently the preparation was frozen (-80 °C) in 1.5 mL portions containing about 1.5 mg protein/mL.
# The test was performed with the radioligand [^3H]-(+)-pentazocine (42,5 Ci/mmol; Perkin Elmer). […] The incubation was terminated by rapid filtration through the presoaked filtermats using a cell harvester. After washing each well five times with 300 µl of water, the filtermats were dried at 95 °C. The bound radioactivity trapped on the filters was counted in the scintillation analyzer as described in the "General procedures" section. The non-specific binding was determined with 10 µM unlabeled (+)-pentazocine.
# σ2 receptor = target: T3, σ2 receptor (Rattus norvegicus, UniProt Q5U3Y7); assay: Receptor binding assay with [3H]-ditolylguanidine on rat liver membranes; conditions: for Ki: read-out: affinity to the σ2 receptor
# T3 construct: tissue Harlan Winkelmann; host or cells: rat liver membranes
# T3 sequence (Q5U3Y7 1-176): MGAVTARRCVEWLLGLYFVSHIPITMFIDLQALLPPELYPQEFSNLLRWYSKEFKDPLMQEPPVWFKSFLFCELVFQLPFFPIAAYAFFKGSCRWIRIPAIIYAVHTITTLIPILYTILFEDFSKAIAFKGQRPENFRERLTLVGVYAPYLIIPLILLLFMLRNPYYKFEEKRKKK
# Procedure: as §1
# Determination of affinity to the σ2 receptor
# Two rat livers (Harlan Winkelmann, Borchen, Germany) were cut into smaller pieces and homogenized with the potter (500-800 rpm, 10 up-and-down strokes) in 6 volumes of cold 0.32 M sucrose. The suspension was centrifuged at 1200 x g for 10 min at 4 °C. The supernatant was separated and centrifuged at 31000 x g for 20 min at 4 °C. The pellet was resuspended in 5-6 volumes of buffer (50 mM TRIS, pH 8.0) and incubated at room temperature for 30 minutes. After the incubation, the suspension was centrifuged again at 31000 x g for 20 min at 4 °C. The final pellet was resuspended in 5 to 6 volumes of buffer, the protein concentration was determined according to the method of Bradford using bovine serum albumin as standard, and subsequently the preparation was frozen (-80 °C) in 1.5 mL portions containing about 2 mg protein/mL.
# (50 Ci/mmol; ARC). […] The incubation was terminated by rapid filtration through the presoaked filtermats using a cell harvester. After washing each well five times with 300 µL of water, the filtermats were dried at 95 °C. Subsequently, the solid scintillator was placed on the filtermat and melted at 95 °C. The bound radioactivity trapped on the filters was counted in the scintillation analyzer as described in the "General procedures" section.
# [2] = Ki mean of three experiments ± S.E.M.
# [3] = 2 nM [3H]-(+)-pentazocine, guinea pig brain membranes
# [4] = 3 nM [3H]-ditolylguanidine with 2 µM (+)-pentazocine
# [5] = 3 nM [3H]-ditolylguanidine with 2 µM (+)-pentazocine, 180 min at room temperature, mean ± SEM
# [6] = 2 nM [3H]-(+)-pentazocine, guinea pig brain membranes, 180 min at 37 °C, mean ± SEM, read-out: affinity to the σ1 receptor
# [7] = 3 nM [3H]-ditolylguanidine with 2 µM (+)-pentazocine, values given in µM
"Ki [1, 2]",Ki (σ2 receptor; [5]),Ki (σ1 receptor; [6]),Structure (SMILES),other results
0.325 µM,0.305 µM,65.3 ± 12.3 nM,COc1ccc2c(c1)CCN(CCCCCc1ccccc1)CC2O (stereo not shown) [formula (5)],–
–,–,155 nM,COc1ccc2c(c1)CCN(CCCSc1ccccc1)CC2O (stereo not shown) [formula (8)],Ki ([1]; values given in µM): 1.88 µM; Ki (σ2 receptor; [7]): 1.52 µM
0.249 ± 0.063 µM,–,293 ± 101 nM,OC1CN(CCCCc2ccccc2)CCc2cc(OCc3ccccc3)ccc21 (stereo not shown) [formula (9)],Ki (σ2 receptor; [7]): 1.05 µM
0.0452 µM,–,349 nM,O=S(=O)(CCCN1CCc2cc(OCc3ccccc3)ccc2C(O)C1)c1ccccc1 (stereo not shown) [formula (10)],Ki (σ2 receptor; [7]): 3.04 µM
0.0604 µM,0.267 ± 0.055 µM,44.3 ± 14.1 nM,COc1ccc2c(c1)CCN(CCCC(=O)c1ccc(C(C)(C)C)cc1)CC2O (stereo not shown) [formula (14)],–
0.209 µM,0.00608 ± 0.00148 µM,42.1 ± 9.9 nM,COc1ccc2c(c1)CCN(CCCCc1ccccc1)[C@@H](C)[C@H]2O [formula (17)],–
0.171 µM,–,40.8 nM,C[C@H]1[C@H](O)c2ccc(O)cc2CCN1CCCCc1ccccc1 [formula (29)],–
0.0164 µM,–,846 nM,C[C@@H]1[C@@H](O)c2ccc(O)cc2CCN1CCCCc1ccccc1 [formula (30)],–

# Continued, compound first:
Structure (SMILES),"Ki [1, 2]",Ki (σ2 receptor; [5]),Ki (σ1 receptor; [6]),other results
OC1CN([C@H]2CC[C@@H](c3ccccc3)CC2)CCc2cc(OCc3ccccc3)ccc21 (relative stereo) [formula (19)],0.156 µM,–,–,inhibition of the σ1 receptor only at concentrations above (σ1 receptor; [3]): above 1 µM; inhibition of the σ2 receptor only at concentrations above (σ2 receptor; [4]): above 1 µM
Oc1ccc2c(c1)CCN([C@H]1CC[C@@H](c3ccccc3)CC1)CC2O (relative stereo) [formula (21)],0.00486 µM,0.00856 ± 0.00433 µM,–,–
Oc1ccc2c(c1)CCN([C@H]1CC[C@H](c3ccccc3)CC1)CC2O (relative stereo) [formula (23)],0.0342 µM,0.00893 ± 0.00257 µM,200 ± 62 nM,–
COc1ccc2c(c1)CCN(CCCCc1ccccc1)CC2O (stereo not shown) [formula (1)],0.00512 µM,0.554 ± 0.221 µM,182 ± 67 nM,–
CCCCCCCCN1CCc2cc(OC)ccc2C(O)C1 (stereo not shown) [formula (2)],0.591 ± 0.15 µM,0.108 ± 0.09 µM,–,Ki (σ1 receptor): 44.6 ± 21.4 nM
COc1ccc2c(c1)CCN(C1CCC(c3ccccc3)CC1)CC2O (stereo not shown) [formula (3)],0.192 ± 0.026 µM,0.0816 ± 0.0444 µM,33.1 ± 29.8 nM,–
Oc1ccc2c(c1)CCN(CCCCc1ccccc1)CC2O (stereo not shown) [formula (4)],0.0153 ± 0.0012 µM,–,–,–
COc1ccc2c(c1)CCN(CCCC(=O)c1ccc(F)cc1)CC2O (stereo not shown) [formula (6)],0.258 µM,–,–,inhibition of the σ1 receptor only at concentrations above (σ1 receptor; [3]): above 1 µM; inhibition of the σ2 receptor only at concentrations above (σ2 receptor; [4]): above 1 µM
COc1ccc2c(c1)CCN(CCCCSc1ccccc1)CC2O (stereo not shown) [formula (7)],–,0.308 ± 0.116 µM,94.7 ± 51 nM,Ki ([1]; values given in µM): 1.04 µM
COc1ccc2c(c1)CCN(CCCC1(c3ccc(F)cc3)OCC(C)(C)CO1)CC2O (stereo not shown) [formula (11)],0.107 µM,–,45.6 nM,"Ki (σ2 receptor; 3 nM [3H]-[…] with 2 µM (+)-pentazocine, 180 min at room temperature, mean ± SEM): 0.103 µM"
OC1CN(CCCSc2ccccc2)CCc2cc(OCc3ccccc3)ccc21 (stereo not shown) [formula (12)],0.046 µM,0.653 µM,376 nM,–
CC(C)(C)c1ccc(C(=O)CCCN2CCc3cc(OCc4ccccc4)ccc3C(O)C2)cc1 (stereo not shown) [formula (13)],0.099 µM,–,604 nM,Ki (σ2 receptor; [7]): 6.43 µM
CC1(C)COC(CCCN2CCc3cc(OCc4ccccc4)ccc3C(O)C2)(c2ccc(F)cc2)OC1 (stereo not shown) [formula (15)],–,–,–,Ki ([1]; values given in µM): 1.24 µM; inhibition of the σ1 receptor only at concentrations above (σ1 receptor; [3]): above 1 µM; inhibition of the σ2 receptor only at concentrations above (σ2 receptor; [4]): above 1 µM
CN(Cc1ccccc1)C(=O)CN1CCc2cc(O)ccc2C(O)C1 (stereo not shown) [formula (16)],–,–,172 nM,Ki ([1]; values given in µM): 7.68 µM; Ki (σ2 receptor; [7]): 1.58 µM
COc1ccc2c(c1)CCN(CCCCc1ccccc1)[C@H](C)[C@@H]2O [formula (18)],0.586 µM,0.0185 ± 0.0042 µM,3.21 ± 1.42 nM,–
OC1CN(C2CCC(c3ccccc3)CC2)CCc2cc(OCc3ccccc3)ccc21 (stereo not shown) [formula (20)],–,0.311 µM,10.4 ± 1.4 nM,Ki ([1]; values given in µM): 2.51 µM
Oc1ccc2c(c1)CCN(CCCOc1ccccc1)CC2O (stereo not shown) [formula (22)],0.0234 µM,0.00589 ± 0.00286 µM,82.2 nM,–
